Results from patent US9605384B2, “Hydrophobic paper, cardboard, and packaging” (STL SUSTAINABLE TECHNOLOGIES, LLC, priority 2010, dated 2017).
“Also recorded” adds a separate entry of the source.

How the values were obtained:
[1] = Solubility / miscibility in water; format: physicochemical
[2] = Stability of halosilane in saturated aqueous salt solution; format: physicochemical; conditions: halosilane added to saturated aqueous salt solution
Experimental: After cooling to room temperature, 25 ml of the saturated salt solution was added to a 50 ml beaker. To this, 1.2 ml of methyltrichlorosilane was slowly added and stirred into the saturated water. […] A piece of maple wood was added to the solution and vigorously stirred. The dissolved methyltrichlorosilane reacted with the wood and produced hydrochloric acid (HCl) gas as a by-product. There was a slight exotherm observed. After 2 minutes, the wood was removed from the water solution and air-dried. […] The water remained tightly beaded up and gradually evaporated after 30 minutes.

Structure (SMILES)	miscibility with water [1]	reaction with water of the saturated salt solution [2]
CCCCCCCC[Si](OCC)(OCC)OCC [n-octyltriethoxysilane]	not very miscible at any concentration	
CO[Si](C)(OC)OC [methyltrimethoxysilane]	readily miscible with water	
C[Si](Cl)(Cl)Cl [methyltrichlorosilane]		did not react with the water; also recorded: no reaction; also recorded: No exotherm or reaction was observed
